One experiment deals with Jurkat/NFAT-RE cells. As to the kind of experiment: NFAT reporter assay (luciferase) in Jurkat/NFAT-RE cells. The format is cell-based. As to conditions: Homo sapiens, 0.02 μg/mL anti-CD3 antibody OKT3, 3 hours, read-out: Jurkat EC50 (uM) Cell Assay: Reporter Cell Variant: NFAT response element. The source says:
To assess the ability of CSK inhibitors to activate LCK and stimulate signaling downstream of the T-cell receptor, an NFAT reporter assay was used for monitoring of LCK activation in cells through the activation of LCK-dependent signaling through a reporter assay. The Jurkat T-cell cell line was genetically engineered to express a luciferase reporter that is regulated by the NFAT-response element. (Clipstone, N. A., & Crabtree, G. R., Identification of calcineurin as a key signalling enzyme in T-lymphocyte activation, Nature, 357(6380), 695-697, 1992). Stimulation of the T-cell receptor with anti-CD3 antibody increases the expression of the luciferase reporter. To test the ability of CSK inhibitors to stimulate LCK and downstream T-cell signaling, the cells were stimulated with a suboptimal concentration of anti-CD3 ligand, to measure the ability of CSK inhibitors to increase luciferase expression.
This assay measures the signaling activity downstream of the T-cell receptor, specifically the ability of the NFAT transcription factor to be translocated to the nucleus and induce expression of a firefly luciferase gene. Jurkat/NFAT-RE cells stably expressing the NFAT reporter construct were purchased from BPS Bioscience. The assay was performed by plating 40,000 Jurkat/NFAT-RE cells in a 50 μL volume of serum-free growth media in a 96-well plate. Following an overnight incubation, the cells were treated with CSK inhibitors and 0.02 μg/mL anti-CD3 antibody OKT3 (BD Bioscience) for 3 hours at 37° C. High control wells were stimulated with DMSO and 5 μg/mL OKT3 to maximally stimulate the NFAT reporter, and low control wells were stimulated with DMSO and 0.02 μg/mL OKT3. Following the 3 hour incubation, the cells were assayed for viability using CellTiter-Fluor™ (Promega), and for luciferase expression using ONE-Glo™ (Promega). The ONE-Glo™ signal was normalized to the CellTiter-Fluor™ signal, and the percentage of NFAT activation relative to high and low controls was calculated. The data were analyzed by using nonlinear regression to generate EC50 values. Selective CSK inhibitors affect an increase in luciferase expression in the presence of low level stimulation of the T-cell receptor.
In general terms: In a reporter assay the amount or activity of a reporter protein is the signal.

The next experiment deals with T1, CSK (Homo sapiens, UniProt P41240).
T1 construct: purchased Thermo Fisher
T1 sequence (P41240 whole entry): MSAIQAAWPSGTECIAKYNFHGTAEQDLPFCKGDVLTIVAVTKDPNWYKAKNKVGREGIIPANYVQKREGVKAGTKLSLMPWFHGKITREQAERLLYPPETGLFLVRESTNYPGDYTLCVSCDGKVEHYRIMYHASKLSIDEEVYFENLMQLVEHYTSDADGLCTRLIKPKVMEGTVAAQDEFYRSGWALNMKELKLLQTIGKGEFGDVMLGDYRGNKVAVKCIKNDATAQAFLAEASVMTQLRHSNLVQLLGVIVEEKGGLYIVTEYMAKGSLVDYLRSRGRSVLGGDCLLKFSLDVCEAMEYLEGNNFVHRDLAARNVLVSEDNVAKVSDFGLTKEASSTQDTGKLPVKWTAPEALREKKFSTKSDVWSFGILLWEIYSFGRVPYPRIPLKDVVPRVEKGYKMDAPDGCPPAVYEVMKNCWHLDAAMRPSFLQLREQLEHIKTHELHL
Put plainly: Human CSK enzymatic assay (AlphaScreen, Poly (Glu4-Tyr) substrate). The format is biochemical. The note with it: 100 uM ATP; read-out: CSK IC50 (μM) COFACTOR: 100 uM ATP. Here is the method: This assay measures the ability of CSK to phosphorylate a biotinylated peptide containing multiple tyrosine residues in vitro. The CSK enzyme was purchased from Thermo Fisher. The biotinylated Poly (Glu4-Tyr) peptide substrate was purchased from Sigma-Aldrich. The CSK enzyme assay was performed using 0.75 ng CSK enzyme and 30 nM Poly (Glu4-Tyr) substrate in the presence of 25 mM Hepes pH 7.5, 5 mM Mg Acetate, 0.1% NP-40, 1 mM DTT, 0.01% BSA, and 100 μM ATP. A 19 μL volume of the above reaction mixture was added to wells of 384-well AlphaPlate (PerkinElmer GA, USA) containing 1 μL of various concentrations of test compound or DMSO vehicle and incubated for 60 minutes at room temperature. 16 wells containing all the components of reaction mixture and 5% DMSO serve as high control. 16 wells containing all the components except ATP of reaction mixture and 5% DMSO served as low control. The enzymatic reaction was stopped by the addition of 5 μL stop/detection mixture containing 25 mM Hepes pH 7.5 100 mM EDTA, and 5 μg/mL streptavidin-coated AlphaScreen donor beads (PerkinElmer GA, USA) and incubated for 20 minutes. A 5 μL mixture containing 25 mM Hepes pH 7.5, 100 mM EDTA, and 5 μg/mL anti-phosphotyrosine antibody PY20-coated AlphaScreen acceptor beads (PerkinElmer GA, USA) was added and the plate was incubated for 1 hour at room temperature. The streptavidin donor beads bind to the biotin moiety on the biotinylated Poly (Glu4-Tyr) substrate and the PY20 antibody-coated acceptor beads bind to tyrosine residues on the substrate that have been directly phosphorylated by CSK. Upon excitation of these beads with laser light at 680 nm, singlet oxygen was produced. This singlet oxygen was rapidly quenched, unless the AlphaScreen PY20 acceptor beads are in close proximity, in which case a proximity signal can be measured at 580 nm. In the presence of catalytic activity, there was a very strong proximity signal. Selective CSK inhibitors affect a decrease in this proximity signal through a decrease in phosphorylation of the Poly (Glu4-Tyr) substrate. The percentage of inhibition at individual concentrations relative to high and low controls was calculated. The data were analyzed by using nonlinear regression to generate IC50 values. Human LCK enzymatic assay
Background: Alpha assays give light when donor and acceptor beads are brought close together.

The target in the next experiment is T2, LCK (Homo sapiens, UniProt P06239).
T2 construct: purchased ProQinase
T2 sequence (P06239 whole entry): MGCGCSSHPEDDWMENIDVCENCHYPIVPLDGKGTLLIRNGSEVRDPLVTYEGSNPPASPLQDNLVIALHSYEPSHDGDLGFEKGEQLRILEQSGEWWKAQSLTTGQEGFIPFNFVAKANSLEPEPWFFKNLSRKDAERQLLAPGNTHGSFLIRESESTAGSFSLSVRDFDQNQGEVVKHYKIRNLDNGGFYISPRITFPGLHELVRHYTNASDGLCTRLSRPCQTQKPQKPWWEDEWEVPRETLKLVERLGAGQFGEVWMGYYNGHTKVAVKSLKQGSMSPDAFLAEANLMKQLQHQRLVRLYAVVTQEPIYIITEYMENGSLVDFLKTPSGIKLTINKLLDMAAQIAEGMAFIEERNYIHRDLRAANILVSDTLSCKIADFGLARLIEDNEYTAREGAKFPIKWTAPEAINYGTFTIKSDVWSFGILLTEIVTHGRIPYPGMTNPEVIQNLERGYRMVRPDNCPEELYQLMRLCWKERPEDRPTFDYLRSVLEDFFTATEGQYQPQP
Put plainly: Human LCK enzymatic assay (AlphaScreen, Poly (Glu4-Tyr) substrate). It counts as biochemical. As to conditions: 100 uM ATP; read-out: LCK IC50 (uM) COFACTOR: 100 uM ATP. Here is the method: This assay measures the ability of LCK to phosphorylate a biotinylated peptide containing multiple tyrosine residues in vitro. The LCK enzyme was purchased from ProQinase. The biotinylated Poly (Glu4-Tyr) peptide substrate was purchased from Sigma-Aldrich. The LCK enzyme assay was performed using 1 ng LCK enzyme and 30 nM Poly (Glu4-Tyr) substrate in the presence of 25 mM Hepes pH 7.5, 10 mM MnCl2, 50 mM NaCl, 0.01% Tween-20, 0.5 mM DTT, 0.01% BSA, and 100 μM ATP. A 19 μL volume of the above reaction mixture was added to wells of 384-well AlphaPlate (PerkinElmer GA, USA) containing 1 μL of various concentrations of test compound or DMSO vehicle and incubated for 40 minutes at 25° C. 16 wells containing all the components of reaction mixture and 5% DMSO served as high control. 16 wells containing all the components except ATP of reaction mixture and 5% DMSO served as low control. The enzymatic reaction was stopped by the addition of 5 μL stop/detection mixture containing 25 mM Hepes pH 7.5 100 mM EDTA, and 10 μg/mL streptavidin-coated AlphaScreen donor beads (PerkinElmer GA, USA) and incubated for 20 minutes. A 5 μL mixture containing 25 mM Hepes pH 7.5, 100 mM EDTA, and 10 μg/mL anti-phosphotyrosine antibody PY20-coated AlphaScreen acceptor beads (PerkinElmer GA, USA) was added and the plate was incubated for 1 hour at room temperature. The streptavidin donor beads bind to the biotin moiety on the biotinylated Poly (Glu4-Tyr) substrate and the PY20 antibody-coated acceptor beads bind to tyrosine residues on the substrate that have been directly phosphorylated by LCK. Upon excitation of these beads with laser light at 680 nm, singlet oxygen was produced. This singlet oxygen was rapidly quenched, unless the AlphaScreen PY20 acceptor beads are in close proximity, in which case a proximity signal can be measured at 580 nm. In the presence of catalytic activity, there was a very strong proximity signal. Selective LCK inhibitors affect a decrease in this proximity signal through a decrease in phosphorylation of the Poly (Glu4-Tyr) substrate. The percentage of inhibition at individual concentrations relative to high and low controls was calculated. The data were analyzed by using nonlinear regression to generate IC50 values.

Usually EC50 stands for the concentration giving half of the maximal effect. For orientation: IC50 means the concentration at which inhibition is half-maximal. Take `O=c1c(-c2c(F)ccc(NS(=O)(=O)c3cc4scnc4cc3F)c2F)cc2cnccc2n1CC1CC1` [P-0025, N-(3-(1-(cyclopropylmethyl)-2-oxo-1,2-dihydro-1,6-naphthyridin-3-yl)-2,4-difluorophenyl)-5-fluorobenzo[d]thiazole-6-sulfonamide]: the EC50 with Jurkat/NFAT-RE cells lay within 5 to 100 µM. The IC50 was 0.5 to 5 µM at CSK and 5 to 100 µM at LCK.
With `Nc1cc2c(cn1)cc(-c1c(F)ccc(NS(=O)(=O)c3cc4scnc4cc3F)c1F)c(=O)n2CC1CC(F)(F)C1` [P-0018, N-(3-(7-amino-1-((3,3-difluorocyclobutyl)methyl)-2-oxo-1,2-dihydro-1,6-naphthyridin-3-yl)-2,4-difluorophenyl)-5-fluorobenzo[d]thiazole-6-sulfonamide], the concentration for a half-maximal effect (EC50) in the experiment with Jurkat/NFAT-RE cells was 0.001 to 0.5 µM. The IC50 lay within 0.001 to 0.5 µM on CSK and 5 to 100 µM at LCK.
For the compound `Nc1cc2c(cn1)cc(-c1c(F)ccc(NS(=O)(=O)c3cc4scnc4cc3F)c1F)c(=O)n2CC(F)F` [P-0003, N-(3-(7-amino-1-(2,2-difluoroethyl)-2-oxo-1,2-dihydro-1,6-naphthyridin-3-yl)-2,4-difluorophenyl)-5-fluorobenzo[d]thiazole-6-sulfonamide], in the experiment on Jurkat/NFAT-RE cells, the EC50 was 0.001 to 0.5 µM. Further, the concentration for half-maximal inhibition (IC50) at CSK was 0.001 to 0.5 µM; on LCK, 5 to 100 µM.
Regarding `O=c1c(-c2c(F)ccc(NS(=O)(=O)c3cc4scnc4cc3F)c2F)cc2cnc(Nc3ccn(C(F)F)n3)cc2n1C1CC1` [P-0012, N-(3-(1-cyclopropyl-7-((1-(difluoromethyl)-1H-pyrazol-3-yl)amino)-2-oxo-1,2-dihydro-1,6-naphthyndin-3-yl)-2,4-difluorophenyl)-5-fluorobenzo[d]thiazole-6-sulfonamide], the EC50 with Jurkat/NFAT-RE cells lay in the range of 0.001 to 0.5 µM. The 50% inhibitory concentration (IC50) at CSK lay in the range of 0.001 to 0.5 µM; on LCK, 0.5 to 5 µM.
Take `CNc1cc2c(cn1)cc(-c1c(F)ccc(NS(=O)(=O)c3cc4scnc4cc3F)c1F)c(=O)n2CC1CC1` [P-0005, N-(3-(1-(cyclopropylmethyl)-7-(methylamino)-2-oxo-1,2-dihydro-1,6-naphthyridin-3-yl)-2,4-difluorophenyl)-5-fluorobenzo[d]thiazole-6-sulfonamide]: the EC50 in the experiment with Jurkat/NFAT-RE cells lay in the range of 0.001 to 0.5 µM. The values for the half-inhibitory concentration (IC50) at CSK and on LCK were 0.001 to 0.5 µM and 5 to 100 µM, respectively.
For the compound `Nc1cc2c(cn1)cc(-c1c(F)ccc(NS(=O)(=O)c3ccc4ncsc4c3)c1F)c(=O)n2C1CC1` [P-0026, N-(3-(7-amino-1-cyclopropyl-2-oxo-1,2-dihydro-1,6-naphthyridin-3-yl)-2,4-difluorophenyl)benzo[d]thiazole-6-sulfonamide], the EC50 in the experiment with Jurkat/NFAT-RE cells is 0.5 to 5 µM. Moreover, the IC50 on CSK lay within 0.001 to 0.5 µM; on LCK it was 5 to 100 µM.
The matching figures for `Nc1cc2c(cn1)cc(-c1c(F)ccc(NS(=O)(=O)c3ccc4ncsc4c3F)c1F)c(=O)n2CC(F)(F)F` [P-0022, N-(3-(7-amino-2-oxo-1-(2,2,2-trifluoroethyl)-1,2-dihydro-1,6-naphthyridin-3-yl)-2,4-difluorophenyl)-7-fluorobenzo[d]thiazole-6-sulfonamide]: 0.001 to 0.5 µM, 0.001 to 0.5 µM and 0.5 to 5 µM.
On the same counts, the results for `Nc1cc2c(cn1)cc(-c1c(F)ccc(NS(=O)(=O)c3cc4scnc4cc3F)c1F)c(=O)n2CC1CC1` [P-0002, N-(3-(7-amino-1-(cyclopropylmethyl)-2-oxo-1,2-dihydro-1,6-naphthyridin-3-yl)-2,4-difluorophenyl)-5-fluorobenzo[d]thiazole-6-sulfonamide] are 0.001 to 0.5 µM, 0.001 to 0.5 µM and 0.5 to 5 µM.
On the same counts, the results for `O=c1c(-c2c(F)ccc(NS(=O)(=O)c3cc4scnc4cc3F)c2F)cc2cnc(NCCO)cc2n1CC1CC1` [P-0010, N-(3-(1-(cyclopropylmethyl)-7-((2-hydroxyethyl)amino)-2-oxo-1,2-dihydro-1,6-naphthyridin-3-yl)-2,4-difluorophenyl)-5-fluorobenzo[d]thiazole-6-sulfonamide] are 0.5 to 5 µM, 0.001 to 0.5 µM and 5 to 100 µM.
In the case of `O=c1c(-c2c(F)ccc(NS(=O)(=O)c3cc4scnc4cc3F)c2F)cc2cnc(Nc3ccn(C(F)F)n3)cc2n1C1CC(F)(F)C1` [P-0013, N-(3-(1-(3,3-difluorocyclobutyl)-7-((1-(difluoromethyl)-1H-pyrazol-3-yl)amino)-2-oxo-1,2-dihydro-1,6-naphthyridin-3-yl)-2,4-difluorophenyl)-5-fluorobenzo[d]thiazole-6-sulfonamide], the EC50 with Jurkat/NFAT-RE cells is 0.001 to 0.5 µM. The IC50 at CSK lay in the range of 0.001 to 0.5 µM; at LCK, 0.5 to 5 µM.
With `Nc1cc2c(cn1)cc(-c1c(F)ccc(NS(=O)(=O)c3ccc4ncsc4c3)c1F)c(=O)n2CC(F)F` [P-0023, N-(3-(7-amino-1-(2,2-difluoroethyl)-2-oxo-1,2-dihydro-1,6-naphthyridin-3-yl)-2,4-difluorophenyl)benzo[d]thiazole-6-sulfonamide], the EC50 with Jurkat/NFAT-RE cells was in the range of 0.001 to 0.5 µM. Besides, the IC50 fell in the range of 0.001 to 0.5 µM at CSK and 0.5 to 5 µM on LCK.
In the case of `Nc1cc2c(cn1)cc(-c1c(F)ccc(NS(=O)(=O)c3ccc4ncsc4c3F)c1F)c(=O)n2CC(F)F` [P-0019, N-(3-(7-amino-1-(2,2-difluoroethyl)-2-oxo-1,2-dihydro-1,6-naphthyridin-3-yl)-2,4-difluorophenyl)-7-fluorobenzo[d]thiazole-6-sulfonamide], in the experiment with Jurkat/NFAT-RE cells, the EC50 lay within 0.001 to 0.5 µM. The IC50 on CSK lay within 0.001 to 0.5 µM; on LCK it was 0.5 to 5 µM.
